The supplement of paper PMC11208160

Assay: recombinant UMI read abundance after kanamycin selection (control-corrected) (log10(CPM+1)); higher = more efficient recombination; extreme values may be limits of the assay; sequences stand for … in AGTGCAGAGAAAATCGGCCAGTTTTCTCTGCCTGCAGTCCGCATGCCGTGGGACCCCTTGGGTTCTAACCTGTTGCCTAGATTTATGCAGCGGACTGCCTTTCTCCCAAAGTGATAAACCGG…AGGTTGGTTTCACT; site = the 11-nt donor
Method in brief: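 Reported values are log10(CPM+1) from a pooled Escherichia coli screen of donor and donor-binding-loop pairs for the IS621 bridge recombinase. Selection used IPTG (0.07 mM) plus kanamycin, against unselected plating, each in two replicates. Recombinant UMIs were amplified across the donor–target junction, sequenced, converted to CPM, averaged over replicates and scaled by control-derived factors.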
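Also: IS621 bridge recombinase in Escherichia coli cells against a fixed T5 target plasmid.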

| Sequence | recombinant UMI read abundance (log10) |
| --- | --- |
| CGTTAGACATGGACCGGTTTTCCCGGTAATCCGTATTTGAG (site CGCTAGACTCT) | 0.501 |
| CGTTAGACATGGACCGGTTTTCCCGGTAATCCGTATTTGAG (site CGGTAGACTCT) | 0.157 |
| CGTTAGACATGGACCGGTTTTCCCGGTAATCCGTATTTGAG (site CGTAAGACTCT) | 0 |
| CGTTAGACATGGACCGGTTTTCCCGGTAATCCGTATTTGAG (site CGTCAGACTCT) | 0.944 |
| CGTTAGACATGGACCGGTTTTCCCGGTAATCCGTATTTGAG (site CGTGAGACTCT) | 0.0124 |
| CGTTAGACATGGACCGGTTTTCCCGGTAATCCGTATTTGAG (site CGTTAAACTCT) | 0.893 |
| CGTTAGACATGGACCGGTTTTCCCGGTAATCCGTATTTGAG (site CGTTACACTCT) | 0.00825 |
| CGTTAGACATGGACCGGTTTTCCCGGTAATCCGTATTTGAG (site CGTTAGACTAT) | 1.08 |
| CGTTAGACATGGACCGGTTTTCCCGGTAATCCGTATTTGAG (site CGTTAGACTCA) | 0.0196 |
| CGTTAGACATGGACCGGTTTTCCCGGTAATCCGTATTTGAG (site CGTTAGACTCC) | 0.374 |
| CGTTAGACATGGACCGGTTTTCCCGGTAATCCGTATTTGAG (site CGTTAGACTCG) | 0 |
| CGTTAGACATGGACCGGTTTTCCCGGTAATCCGTATTTGAG (site CGTTAGACTCT) | 1.55 |
| CGTTAGACATGGACCGGTTTTCCCGGTAATCCGTATTTGAG (site CGTTAGACTGT) | 0.00425 |
| CGTTAGACATGGACCGGTTTTCCCGGTAATCCGTATTTGAG (site CGTTAGACTTT) | 0.315 |
| CGTTAGACATGGACCGGTTTTCCCGGTAATCCGTATTTGAG (site CGTTAGCCTCT) | 0.021 |
| CGTTAGACATGGACCGGTTTTCCCGGTAATCCGTATTTGAG (site CGTTAGGCTCT) | 0.214 |
| CGTTAGACATGGACCGGTTTTCCCGGTAATCCGTATTTGAG (site CGTTAGTCTCT) | 0.506 |
| CGTTAGACATGGACCGGTTTTCCCGGTAATCCGTATTTGAG (site CGTTATACTCT) | 0.0136 |
| CGTTAGACATGGACCGGTTTTCCCGGTAATCCGTATTTGAG (site CGTTCGACTCT) | 0.00605 |
| CGTTAGACATGGACCGGTTTTCCCGGTAATCCGTATTTGAG (site CGTTGGACTCT) | 0.013 |
| CGTTAGACATGGACCGGTTTTCCCGGTAATCCGTATTTGAG (site CGTTTGACTCT) | 0.0164 |
| CGTTAGACATGGACCGGTTTTCCCGGTAATCCGTATTTGAG (site CTTTAGACTCT) | 0.00778 |
| CGTTAGACATGGACCGGTTTTCCCGGTAATCCGTATTTGAG (site GGTTAGACTCT) | 0.0132 |
| CGTTAGACATGGACCGGTTTTCCCGGTAATCCGTATTTGAG (site TGTTAGACTCT) | 0.0126 |
| CGTTAGACATGGACCGGTTTTCCCGGTAATCCGTATTTGGG (site CGTTAGACTCA) | 0 |

| Sequence | recombinant UMI read abundance (log10) |
| --- | --- |
| CGTTAGACATGGACCGGTTTTCCCGGTAATCCGTATTTGGG (site CGTTAGACTCC) | 0.0132 |
| CGTTAGACATGGACCGGTTTTCCCGGTAATCCGTATTTGGG (site CGTTAGACTCG) | 0.0116 |
| CGTTAGACATGGACCGGTTTTCCCGGTAATCCGTATTTGGG (site CGTTAGACTCT) | 0.512 |
| CGTTAGACATGGACCGGTTTTCCCGGTAATCCGTATTTGTG (site CGTTAGACTCA) | 1.14 |
| CGTTAGACATGGACCGGTTTTCCCGGTAATCCGTATTTGTG (site CGTTAGACTCC) | 0.0241 |
| CGTTAGACATGGACCGGTTTTCCCGGTAATCCGTATTTGTG (site CGTTAGACTCG) | 0.198 |
| CGTTAGACATGGACCGGTTTTCCCGGTAATCCGTATTTGTG (site CGTTAGACTCT) | 0.0332 |
| CGTTAGTCATGGACCGGTTTTCCCGGTAATCCGTATTTGAG (site CGTTAGACTCT) | 0.0321 |
| CGTTAGTCATGGACCGGTTTTCCCGGTAATCCGTATTTGAG (site CGTTAGCCTCT) | 0.0076 |
| CGTTAGTCATGGACCGGTTTTCCCGGTAATCCGTATTTGAG (site CGTTAGGCTCT) | 0.0227 |
| CGTTAGTCATGGACCGGTTTTCCCGGTAATCCGTATTTGAG (site CGTTAGTCTCT) | 2.05 |
| CGTTCACCATGGACCGGTTTTCCCGGTAATCCGTATTTGCT (site CGATCATCTAG) | 0 |
| CGTTCACCATGGACCGGTTTTCCCGGTAATCCGTATTTGCT (site CGTTCACCTAG) | 0.00366 |
| CGTTCATCATGGACCGGTTTTCCCGGTAATCCGTATTTGAT (site CGATCATCTAG) | 0 |
| CGTTCATCATGGACCGGTTTTCCCGGTAATCCGTATTTGAT (site CGTTCATCTAT) | 0 |
| CGTTCGACATGGACCGGTTTTCCCGGTAATCCGTATTTGAG (site CGTTAGACTCT) | 0.0143 |
| CGTTCGACATGGACCGGTTTTCCCGGTAATCCGTATTTGAG (site CGTTCGACTCT) | 0.635 |
| CGTTCGACATGGACCGGTTTTCCCGGTAATCCGTATTTGAG (site CGTTGGACTCT) | 0.0108 |
| CGTTCGACATGGACCGGTTTTCCCGGTAATCCGTATTTGAG (site CGTTTGACTCT) | 0.0134 |
| CGTTGAACATGGACCGGTTTTCCCGGTAATCCGTATTTGGA (site CGTTGAACTTC) | 0.945 |
| CGTTGAGCATGGACCGGTTTTCCCGGTAATCCGTATTTGCG (site CGTTGAGCTCG) | 1.2 |
| CGTTGGGCATGGACCGGTTTTCCCGGTAATCCGTATTTGCT (site CGTTAGGCTAG) | 0.41 |
| CGTTGGGCATGGACCGGTTTTCCCGGTAATCCGTATTTGCT (site CGTTCGGCTAG) | 0 |
| CGTTGGGCATGGACCGGTTTTCCCGGTAATCCGTATTTGCT (site CGTTGGGCTAG) | 1.65 |
| CGTTGGGCATGGACCGGTTTTCCCGGTAATCCGTATTTGCT (site CGTTTGGCTAG) | 0 |

| Sequence | recombinant UMI read abundance (log10) |
| --- | --- |
| CGTTGTCCATGGACCGGTTTTCCCGGTAATCCGTATTTGAA (site CGTTGTCCTTT) | 0.00747 |
| CGTTGTCCATGGACCGGTTTTCCCGGTAATCCGTATTTGTA (site CGTTGTCCTTA) | 0.0342 |
| CGTTTAACATGGACCGGTTTTCCCGGTAATCCGTATTTGGC (site CGTTTAACTGC) | 0.793 |
| CGTTTAGCATGGACCGGTTTTCCCGGTAATCCGTATTTGCT (site CGTTTAGCTAG) | 0 |
| CGTTTAGCATGGACCGGTTTTCCCGGTAATCCGTATTTGCT (site CGTTTCGCTAG) | 0 |
| CGTTTAGCATGGACCGGTTTTCCCGGTAATCCGTATTTGCT (site CGTTTGGCTAG) | 0 |
| CGTTTAGCATGGACCGGTTTTCCCGGTAATCCGTATTTGCT (site CGTTTTGCTAG) | 0 |
| CGTTTGACATGGACCGGTTTTCCCGGTAATCCGTATTTGCT (site CGTTTGACTAG) | 2.38 |
| CGTTTGACATGGACCGGTTTTCCCGGTAATCCGTATTTGCT (site CGTTTGCCTAG) | 0 |
| CGTTTGACATGGACCGGTTTTCCCGGTAATCCGTATTTGCT (site CGTTTGGCTAG) | 1.12 |
| CGTTTGACATGGACCGGTTTTCCCGGTAATCCGTATTTGCT (site CGTTTGTCTAG) | 0 |
| CGTTTGCCATGGACCGGTTTTCCCGGTAATCCGTATTTGCT (site CGTTTGACTAG) | 0 |
| CGTTTGCCATGGACCGGTTTTCCCGGTAATCCGTATTTGCT (site CGTTTGCCTAG) | 0.79 |
| CGTTTGCCATGGACCGGTTTTCCCGGTAATCCGTATTTGCT (site CGTTTGGCTAG) | 0.00559 |
| CGTTTGCCATGGACCGGTTTTCCCGGTAATCCGTATTTGCT (site CGTTTGTCTAG) | 0 |
| CGTTTGGCATGGACCGGTTTTCCCGGTAATCCGTATTTGCG (site CGTTTGGCTAG) | 0 |
| CGTTTGGCATGGACCGGTTTTCCCGGTAATCCGTATTTGCG (site CGTTTGGCTCG) | 0.142 |
| CGTTTGGCATGGACCGGTTTTCCCGGTAATCCGTATTTGCG (site CGTTTGGCTGG) | 0 |
| CGTTTGGCATGGACCGGTTTTCCCGGTAATCCGTATTTGCG (site CGTTTGGCTTG) | 0 |
| CGTTTGGCATGGACCGGTTTTCCCGGTAATCCGTATTTGCT (site AGTTTGGCTAG) | 0 |
| CGTTTGGCATGGACCGGTTTTCCCGGTAATCCGTATTTGCT (site CATTTGGCTAG) | 0 |
| CGTTTGGCATGGACCGGTTTTCCCGGTAATCCGTATTTGCT (site CCTTTGGCTAG) | 0 |
| CGTTTGGCATGGACCGGTTTTCCCGGTAATCCGTATTTGCT (site CGATTGGCTAG) | 0 |
| CGTTTGGCATGGACCGGTTTTCCCGGTAATCCGTATTTGCT (site CGCTTGGCTAG) | 0 |
| CGTTTGGCATGGACCGGTTTTCCCGGTAATCCGTATTTGCT (site CGGTTGGCTAG) | 0 |
